Patent US20210230300A1, “INHIBITORS OF SHP2” (Bayer Aktiengesellschaft, priority 2018, published 2021)
Entries after “also recorded” stand apart in the source; their conditions may differ. Marks after values point to notes of the source that are not given here.

Tests used:
[1] = tested on: mouse renal ischemia reperfusion injury (IRI) model; experiment: Mouse uninephrectomy/renal ischemia reperfusion injury (uIRI) model; format: in vivo; details: 30 [mg/kg] SHP099 p.o. BID
Procedure: Experiments indicative for acute kidney diseases were carried out in a uninephrectomy/renal ischemia reperfusion injury (uIRI) model (example 3), as e.g. disclosed in Skrypnyk et al (2013).
In a mouse renal ischemia reperfusion injury (IRI) model, uninephrectomy (UNX) with unilateral renal ischemia (RI), was carried out. Therein, one kidney is removed and the remaining kidney undergoes ischemia/reprefusion via renal artery claming, Animals were then treated according to the following groups: […]

[2] = tested on: Mouse 10 day unilateral ureter obstruction (UUO) model; experiment: Mouse 10 day UUO model, renal mRNA expression of fibrotic markers (TaqMan real time PCR); format: in vivo; details: for Col1α1 mRNA expression, percentage vs. placebo / Col3α1 mRNA expression, percentage vs. placebo / Col4α1 mRNA expression, percentage vs. placebo / αSMA mRNA expression, percentage vs. placebo: kidney
Procedure: (§1) The study was performed on male C57/B16J mice (age: 7-8 weeks) that were obtained from Charles River. Mice were anesthetized with continuous inhaled isoflurane, and the left ureter was exposed via a mid-abdominal incision. The mid-ureter was obstructed by two point ligation with silk sutures. The SHAM-operated mouse (n=6) underwent the same procedure except for the obstruction of the left ureter.
(§2) The mice were randomized into four groups (n=10 each group): UUO plus vehicle (10% EtOH/40% PEG/50% water), UUO plus 3 [mg/kg] […] SHP099. Mice were dosed bidaily with vehicle and SHP099. The forth group of mice with UUO was treated once daily with Tivozanib (technical control). At ten days after surgery, mice were euthanized, and kidneys were collected and divided in two parts.
(§3) One part was snap-frozen in liquid nitrogen for RNA analysis. The other part was stored in Davidson's fixative for the preparation of histological sections. Total RNA was isolated from parts of harvested kidneys. Kidney tissue was homogenized and RNA was obtained and transcribed to cDNA. Using TaqMan real time PCR renal mRNA expression of fibrotic markers was analyzed in kidney tissues. For the assessment of fibrosis on the protein level paraffin tissue sections were stained with alpha-smooth muscle actin (αSMA) and Sirius Red/Fast Green Collagen Stainings using standard procedures.
(§4) All data are expressed as means±S.D. Differences between groups were analyzed by one-way ANOVA with Dunnett's corrections for multiple comparisons. Statistical significance was defined as p<0.05.
(§5) After 10 days, the weight of the kidneys was measured, and RNA-markers αSMA, Col1α1, Col3α1, Col4α1 were measured with RT PCR. Further, histological measurements of αSMA (Alpha smooth muscle actin) and Collagen (SR/FG) were carried out.

[3] = tested on: Mouse 10 day unilateral ureter obstruction (UUO) model; experiment: Mouse 10 day UUO model, histology (αSMA and Sirius Red/Fast Green collagen staining); format: in vivo
Procedure: as §1, §2, §3
Quantitative measurements of alpha-smooth muscle actin (αSMA)-positive as well as Sirius Red (Collagen) positive areas within the kidneys were obtained by computer image analysis using the Axio Scan Z1 (Zeiss) microscope and the Zen software.
as §4, §5

log D = format: physicochemical
[4] = tested on: Mouse 3 day unilateral ureter obstruction (UUO) model; experiment: Mouse 3 day unilateral ureter obstruction (UUO) model, macrophage infiltration by flow cytometry (CD45, F4/80); format: in vivo; details: 3 day UUO
Procedure: As a placebo, a solution without active ingredient was used (group 2), and a sham operated group with unligated kidney was used as a positive control (group 1)
The infiltration of macrophages in response to the renal injury was measured in a flow cytometry assay with detection antibodies binding to the pan-leukocyte marker CD45, as well as to the macrophage-specific antigen, F4/80.

[5] = SHP099 3 and 30 mg/kg bidaily, result in words
[6] = Tivozanib once daily (technical control)

## CC1(N)CCN(c2cnc(-c3cccc(Cl)c3Cl)c(N)n2)CC1 [SHP099]
[1]
  podocyte marker NHPS1 expression: reproducible and strong effects
  serum creatinine: robust reduction
  serum urea: mild reduction
[2]; [5]
  collagen RNA expression in kidney (Collagen 1a1, 3a1, 4a1): strong and very significant reduction; also recorded: dose-dependent reduction
  αSMA RNA expression in kidney: strong and very significant reduction; also recorded: dose-dependent reduction
[2]; 3 [mg/kg] SHP099 bidaily
  Col1α1 mRNA expression, percentage vs. placebo: 77%
  Col3α1 mRNA expression, percentage vs. placebo: 82%
  Col4α1 mRNA expression, percentage vs. placebo: 85%
  αSMA mRNA expression, percentage vs. placebo: 81%
[2]; 30 [mg/kg] SHP099 bidaily
  Col1α1 mRNA expression, percentage vs. placebo: 51%
  Col3α1 mRNA expression, percentage vs. placebo: 54%
  Col4α1 mRNA expression, percentage vs. placebo: 56%
  αSMA mRNA expression, percentage vs. placebo: 47%
[3]; 3 [mg/kg] SHP099 bidaily
  αSMA-positive area within the obstructed kidney: significant reduction
[3]; SHP099 treated, compared to untreated or Tivozanib treated mice, dose not stated
  collagen deposition in kidneys: strong and significant reduction
[3]; SHP099 treated, dose not stated
  aSMA-positive area in kidneys: strong and significant reduction
[3]; both dosages of SHP099 (3 and 30 mg/kg bidaily)
  Collagen content (SR/FG staining): dose dependently and significantly reduced
Log D
  log D: 1.7
[4]; 100 mg/kg SHP099 BID p.o.
  macrophage infiltration: significant, dose-dependent reduction

## COc1cc2nccc(Oc3ccc(NC(=O)Nc4cc(C)on4)c(Cl)c3)c2cc1OC [Tivozanib]
[2]; [6]
  Col1α1 mRNA expression, percentage vs. placebo: 62%
  Col3α1 mRNA expression, percentage vs. placebo: 76%
  Col4α1 mRNA expression, percentage vs. placebo: 71%
  αSMA mRNA expression, percentage vs. placebo: 64* %
[3]; [6]
  Collagen content (SR/FG staining): significantly reduced
  αSMA-positive area within the obstructed kidney: significantly reduced
[4]; 3 mg/kg Tivozanib QD p.o., in comparison with SHP099
  macrophage infiltration: weaker effects
